According to patent publication US7803801B2, “Aminopyridine compounds having Syk inhibitory activity” (Japan Tobacco, Inc., priority 2005, dated 2010):
Where two headings read alike, the source gives them in different places.

Legend:
[1] = target: GST-Syk Full Protein (human) (Homo sapiens, UniProt P43405); experiment: Syk kinase inhibition test (HTRF method); assay type: biochemical; conditions: HTRF, 100 μM ATP, 30 min room temperature, average; read-out: sykHTRF ave IC50
In short: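 HTRF read-out: after EDTA termination and 1 h with XL665-streptavidin and Eu-anti-phosphotyrosine, the 665/620 nm ratio was measured. The reaction ran 30 min at 20–25 °C with final 6.4 nM human GST-Syk, 250 nM biotinylated peptide, 100 μM ATP, pH 7.0 HEPES buffer, 2% DMSO.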

[2] = tested on: cultured human mast cells; experiment: Degranulation inhibition test using cultured human mast cells (IgE cross-linking, β-Hexosaminidase release); assay type: cell-based; conditions: cultured human mast cells, anti-hIgE stimulation, β-Hexosaminidase index, average, read-out: human degranulation ave. IC50
In short: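 Degranulation was triggered by anti-hIgE (10 μg/mL final, 30 min, 37 °C) after a 10-min compound pretreatment (DMSO 0.1%) of cord-blood CD34+-derived mast cells primed 5 days with IL-4 and IgE. β-Hexosaminidase in supernatant was measured with p-nitrophenyl-GlcNAc substrate (A405), expressed against water-lysed total; IC50 (M).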

IC50 [1] [nM] | IC50 ([2]; Mast cell) [nM] | IC50 [2] [nM] | Structure (SMILES)
100 to 1000 | 100 to 1000 | – | Cc1ccnc(Nc2cccc(-c3cnc([C@H]4CC[C@H](C(=O)N(C)C)CC4)s3)n2)c1 [Compound A-264]
< 100 | 100 to 1000 | – | Cc1ccnc(Nc2cccc(-c3cnc([C@H]4CC[C@H](C(=O)NCCO)CC4)s3)n2)c1 [Compound A-267, N-(2-hydroxyethyl)-trans-4-{5-[6-(4-methylpyridin-2-ylamino)pyridin-2-yl]thiazol-2-yl}cyclohexanecarboxamide]
100 to 1000 | 100 to 1000 | – | Cc1ccnc(Nc2cccc(-c3cnc(CC4CCC(C(=O)N5CCC(O)CC5)CC4)s3)n2)c1 (centres unmarked) [Compound A-269]
100 to 1000 | – | 100 to 1000 | Cc1ccnc(Nc2cccc(-c3cnc(C4CCCC(C(=O)N5CCC(O)CC5)C4)s3)n2)c1 (centres unmarked) [Compound A-271]
100 to 1000 | 100 to 1000 | – | Cc1ccnc(Nc2cccc(-c3cnc(C4CCCC(C(=O)N5CCC(O)CC5)C4)s3)n2)c1 (centres unmarked) [Compound A-272]
100 to 1000 | > 1000 | – | Cc1ccnc(Nc2cccc(-c3cnc([C@H]4CC[C@H](C(=O)N5CCCCC5)CC4)s3)n2)c1 [Compound A-274]
100 to 1000 | 100 to 1000 | – | Cc1ccnc(Nc2cccc(-c3cnc([C@H]4CC[C@H](C(=O)N5CCOCC5)CC4)s3)n2)c1 [Compound A-275]
100 to 1000 | 100 to 1000 | – | COC1CCN(C(=O)[C@H]2CC[C@H](c3ncc(-c4cccc(Nc5cc(C)ccn5)n4)s3)CC2)CC1 [Compound A-280]
< 100 | 100 to 1000 | – | Cc1ccnc(Nc2cccc(-c3cnc([C@H]4CC[C@H](C(=O)N5CCC(O)C5)CC4)s3)n2)c1 (stereo partly drawn) [Compound A-282, (3-hydroxypyrrolidin-1-yl)-(trans-4-{5-[6-(4-methylpyridin-2-ylamino)pyridin-2-yl]thiazol-2-yl}cyclohexyl)methanone]
< 100 | > 1000 | – | Cc1ccnc(Nc2cccc(-c3cnc([C@H]4CC[C@H](C(=O)N5CCNC(=O)C5)CC4)s3)n2)c1 [Compound A-283, 4-(trans-4-{5-[6-(4-methylpyridin-2-ylamino)pyridin-2-yl]thiazol-2-yl}cyclohexanecarbonyl)piperazin-2-one]
100 to 1000 | 100 to 1000 | – | CC(=O)NC1CCN(C(=O)[C@H]2CC[C@H](c3ncc(-c4cccc(Nc5cc(C)ccn5)n4)s3)CC2)C1 (some centres unmarked) [Compound A-284]
100 to 1000 | 100 to 1000 | – | Cc1ccnc(Nc2cccc(-c3cnc([C@H]4CC[C@H](C(=O)N5CCC[C@H]5CO)CC4)s3)n2)c1 [Compound A-285]
< 100 | 100 to 1000 | – | Cc1ccnc(Nc2cccc(-c3cnc([C@H]4CC[C@H](C(=O)N5CCC[C@@H]5CO)CC4)s3)n2)c1 [Compound A-286, ((R)-2-hydroxymethylpyrrolidin-1-yl)-(trans-4-{5-[6-(4-methylpyridin-2-ylamino)pyridin-2-yl]thiazol-2-yl}cyclohexyl)metanone]
100 to 1000 | 100 to 1000 | – | Cc1ccnc(Nc2cccc(-c3cnc([C@H]4CC[C@H](C(=O)N5CCC(N(C)C)C5)CC4)s3)n2)c1 (some centres unmarked) [Compound A-287]
100 to 1000 | > 1000 | – | CC(=O)N1CCN(C(=O)[C@H]2CC[C@H](c3ncc(-c4cccc(Nc5cc(C)ccn5)n4)s3)CC2)CC1 [Compound A-289]
< 100 | > 1000 | – | Cc1ccnc(Nc2cccc(-c3cnc([C@H]4CC[C@H](C(=O)N5CCC(N)CC5)CC4)s3)n2)c1 [Compound A-290, (4-aminopiperidin-1-yl)-(trans-4-{5-[6-(4-methylpyridin-2-ylamino)pyridin-2-yl]thiazol-2-yl}cyclohexyl)methanone]
100 to 1000 | 100 to 1000 | – | COc1ccnc(Nc2cccc(-c3cnc([C@H]4CC[C@H](C(=O)N5CCC(O)CC5)CC4)s3)n2)c1 [Compound A-291]
100 to 1000 | > 1000 | – | Cc1ccnc(Nc2cccc(-c3cnc(C4CCN(C(=O)C5CCNCC5)CC4)s3)n2)c1 [Compound A-292]
100 to 1000 | > 1000 | – | Cc1ccnc(Nc2cccc(-c3cnc([C@H]4CC[C@H](CN5CCC(O)CC5)CC4)s3)n2)c1 [Compound A-296]
< 100 | 100 to 1000 | – | O=C([C@H]1CC[C@H](c2ncc(-c3cccc(Nc4cc(Cl)ccn4)n3)s2)CC1)N1CCC(O)CC1 [Compound A-297, (trans-4-{5-[6-(4-chloropyridin-2-ylamino)pyridin-2-yl]thiazol-2-yl}cyclohexyl)-(4-hydroxypiperidin-1-yl)metanone]
< 100 | 100 to 1000 | – | Cc1ccnc(Nc2cccc(-c3cnc([C@H]4CC[C@H](C(=O)NN5CCC(O)CC5)CC4)s3)n2)c1 [Compound A-298, N-(4-hydroxypiperidin-1-yl)-trans-4-{5-[6-(4-methylpyridin-2-ylamino)pyridin-2-yl]thiazol-2-yl}cyclohexanecarboxamide]
100 to 1000 | 100 to 1000 | – | Cc1ccnc(Nc2cccc(-c3cnc([C@H]4CC[C@H](C(=O)N5CCN(C)CC5)CC4)s3)n2)c1 [Compound A-300]

The next lines start with the compound.

Structure (SMILES) | IC50 [1] [nM] | IC50 ([2]; Mast cell) [nM] | IC50 [2] [nM]
Cc1ccnc(Nc2cccc(-c3cnc(CCC4CCNCC4)s3)n2)c1 [Compound A-258, N-(4-methylpyridin-2-yl)-N-{6-[2-(2-piperidin-4-ylethyl)thiazol-5-yl]pyridin-2-yl}amine] | < 100 | > 1000 | –
CC(=O)N1CCC(CCc2ncc(-c3cccc(Nc4cc(C)ccn4)n3)s2)CC1 [Compound A-259] | 100 to 1000 | 100 to 1000 | –
Cc1ccnc(Nc2cccc(-c3cnc(CCC4CCN(S(C)(=O)=O)CC4)s3)n2)c1 [Compound A-260, N-(6-{2-[2-(1-methanesulfonylpiperidin-4-yl)ethyl]thiazol-5-yl}pyridin-2-yl)-N-(4-methylpyridin-2-yl)amine] | < 100 | 100 to 1000 | –
Cc1ccnc(Nc2cccc(-c3cnc(CCNS(C)(=O)=O)s3)n2)c1 [Compound A-261] | 100 to 1000 | 100 to 1000 | –
Cc1ccnc(Nc2cccc(-c3cnc(CNc4ccc(CC(=O)O)cc4)s3)n2)c1 [Compound A-262] | 100 to 1000 | > 1000 | –
Cc1ccnc(Nc2cccc(-c3cnc(CCC4CCN(C(=O)CO)CC4)s3)n2)c1 [Compound A-263, 2-hydroxy-1-[4-(2-{5-[6-(4-methylpyridin-2-ylamino)pyridin-2-yl]thiazol-2-yl}ethyl)piperidin-1-yl]ethanone] | < 100 | 100 to 1000 | –
CON(C)C(=O)[C@H]1CC[C@H](c2ncc(-c3cccc(Nc4cc(C)ccn4)n3)s2)CC1 [Compound A-265] | 100 to 1000 | 100 to 1000 | –
Cc1ccnc(Nc2cccc(-c3cnc(C4CCN(C(=O)NCCO)CC4)s3)n2)c1 [Compound A-266] | 100 to 1000 | 100 to 1000 | –
Cc1ccnc(Nc2cccc(-c3cnc([C@H]4CC[C@H](C(=O)NCCN5CCOCC5)CC4)s3)n2)c1 [Compound A-268, N-(2-morpholin-4-ylethyl)-trans-4-{5-[6-(4-methylpyridin-2-ylamino)pyridin-2-yl]thiazol-2-yl}cyclohexanecarboxamide] | < 100 | 100 to 1000 | –
Cc1ccnc(Nc2cccc(-c3cnc(C4CCCC(C(=O)O)C4)s3)n2)c1 (centres unmarked) [Compound A-270] | 100 to 1000 | > 1000 | –
Cc1ccnc(Nc2cccc(-c3cnc(C4CCCC(C(=O)N5C[C@@H](O)[C@@H](O)C5)C4)s3)n2)c1 (some centres unmarked) [Compound A-273] | 100 to 1000 | > 1000 | –
Cc1ccnc(Nc2cccc(-c3cnc(CCc4cccc(C(=O)O)c4)s3)n2)c1 [Compound A-276] | 100 to 1000 | > 1000 | –
Cc1ccnc(Nc2cccc(-c3cnc(CCc4cccc(CO)c4)s3)n2)c1 [Compound A-277, [3-(2-{5-[6-(4-methylpyridin-2-ylamino)pyridin-2-yl]thiazol-2-yl}ethyl)phenyl]methanol] | < 100 | 100 to 1000 | –
Cc1ccnc(Nc2cccc(-c3cnc(CNc4ccc(CC(=O)N5CCC(O)CC5)cc4)s3)n2)c1 [Compound A-278] | 100 to 1000 | > 1000 | –
Cc1ccnc(Nc2cccc(-c3cnc([C@H]4CC[C@H](C(=O)NCCc5ccccn5)CC4)s3)n2)c1 [Compound A-279] | 100 to 1000 | 100 to 1000 | –
Cc1ccnc(Nc2cccc(-c3cnc(CNCc4ccc(C(=O)O)cc4)s3)n2)c1 [Compound A-288] | 100 to 1000 | > 1000 | –
Cc1ccnc(Nc2cccc(-c3cnc(CCC4CCN(C(=O)C5CCC(=O)CC5)CC4)s3)n2)c1 [Compound A-293] | 100 to 1000 | > 1000 | –
Cc1ccnc(Nc2cccc(-c3cnc(CCC4CCN(C(=O)C5CCC(O)CC5)CC4)s3)n2)c1 (centres unmarked) [Compound A-294] | 100 to 1000 | > 1000 | –
Cc1ccnc(Nc2cccc(-c3cnc(CCC4CCN(C(=O)C5CCNCC5)CC4)s3)n2)c1 [Compound A-295, [4-(2-{5-[6-(4-methylpyridin-2-ylamino)pyridin-2-yl]thiazol-2-yl}ethyl)piperidin-1-yl]-(piperidin-4-yl)metanone] | < 100 | > 1000 | –
Cc1ccnc(Nc2cccc(-c3cnc(CCC4CCN(C(=O)c5ccncc5)CC4)s3)n2)c1 [Compound A-301] | 100 to 1000 | 100 to 1000 | –
Cc1ccnc(Nc2cccc(-c3cnc([C@H]4CC[C@H](C(=O)N(CCO)CCO)CC4)s3)n2)c1 [Compound A-302] | 100 to 1000 | 100 to 1000 | –
